Reference: US7893067B2, “Cysteine protease inhibitors” (Medivir AB, priority 2007, dated 2011)

What was measured:
[1] = target: T1, human recombinant cathepsin K (Homo sapiens, UniProt P43235); assay: Determination of cathepsin K proteolytic catalytic activity (Ki); type: biochemical
T1 construct: made in house; host or cells: not fixed: E coli, Pichia or Baculovirus systems named as options
T1 sequence (P43235 115-329): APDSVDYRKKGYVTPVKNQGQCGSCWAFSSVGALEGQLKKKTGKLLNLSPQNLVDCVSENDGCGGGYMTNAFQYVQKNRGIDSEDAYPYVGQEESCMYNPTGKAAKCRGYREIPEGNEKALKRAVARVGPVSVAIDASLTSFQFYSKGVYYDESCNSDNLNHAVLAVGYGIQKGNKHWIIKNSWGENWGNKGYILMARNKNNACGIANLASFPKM
Experimental: Convenient assays for cathepsin K are carried out using human recombinant enzyme, such as that described in PDB.
The recombinant cathepsin K can be expressed in a variety of commercially available expression systems including E coli, Pichia and Baculovirus systems. The purified enzyme is activated by removal of the prosequence by conventional methods.
Standard assay conditions for the determination of kinetic constants used a fluorogenic peptide substrate, typically H-D-Ala-Leu-Lys-AMC, and were determined in either 100 mM Mes/Tris, pH 7.0 containing 1 mM EDTA and 10 mM 2-mercaptoethanol or 100 mM Na phosphate, imM EDTA, 0.1% PEG4000 pH 6.5 or 100 mM Na acetate, pH 5.5 containing 5 mM EDTA and 20 mM cysteine, in each case optionally with […] as stabiliser. The enzyme concentration used was 5 nM. The stock substrate solution was prepared at 10 mM in DMSO. Screens were carried out at a fixed substrate concentration of 60 μM and detailed kinetic studies with doubling dilutions of substrate from 250 μM. The total DMSO concentration in the assay was kept below 3%. All assays were conducted at ambient temperature. Product fluorescence (excitation at 390 nm, emission at 460 nm) was monitored with a Labsystems Fluoroskan Ascent fluorescent plate reader. Product progress curves were generated over 15 minutes following generation of AMC product.
(§1) Potential inhibitors are screened using the above assay with variable concentrations of test compound. Reactions were initiated by addition of enzyme to buffered solutions of substrate and inhibitor. Ki values were calculated according to equation 1
(§2) [formula] where v0 is the velocity of the reaction, V is the maximal velocity, S is the concentration of substrate with Michaelis constant of KM, and/is the concentration of inhibitor.

[2] = target: T2, baculovirus-expressed human cathepsin S (Homo sapiens, UniProt P25774); assay: Cathepsin S Ki determination; type: biochemical
T2 construct: made in house
Experimental: 280 μl/well of 12.5% DMSO are added to rows B-H of two columns of a 96 deep well polypropylene plate. 70 μl/well of substrate is added to row A. 2×250 μl/well of assay buffer (100 mM Na phosphate, 100 mM NaCl, pH 6.5) is added to row A, mixed, and double diluted down the plate to row H. 100 μl/well of assay buffer is added to columns 2-5 and 7-12 of 4 rows of a 96 well V bottom polypropylene plate. 200 μl/well of assay buffer is added to columns 1 and 6. […] Add 90 μl assay buffer containing 1 mM DTT and 2 nM cathepsin S to each well of rows B-H and 180 μl to row A. Mix row A using a multichannel pipette and double dilute to row G. Mix row H and read in the fluorescent spectrophotometer. […] The second test compound is added to column 6 of the top row, the third to column 1 of the second row etc. Add 1 μl of comparator to column 6 of the bottom row. Mix column 1 and double dilute to column 5. Mix column 6 and double dilute to column 10. Using an 8-channel multistepping pipette set to 5×10 μl, distribute 10 μl/well of substrate to the 384 well assay plate. Distribute the first column of the substrate dilution plate to all columns of the assay plate starting at row A. The tip spacing of the multichannel pipette will correctly skip alternate rows. Distribute the second column to all columns starting at row B. Using a 12-channel multistepping pipette set to 4×10 μl, distribute 10 μl/well of inhibitor to the 384 well assay plate. Distribute the first row of the inhibitor dilution plate to alternate rows of the assay plate starting at A1. The tip spacing of the multichannel pipette will correctly skip alternate columns. Similarly, distribute the second, third and fourth rows to alternate rows and columns starting at A2, B1 and B2 respectively. Mix 20 ml assay buffer and 20 μl 1M DTT. Add sufficient cathepsin S to give 2 nM final concentration. Using the a distributor such as a Multidrop 384, add 30 μl/well to all wells of the assay plate and read in fluorescent spectrophotomoter such as an Ascent. Fluorescent readings, (excitation and emission wavelengths 390 nm and 460 nm respectively, set using bandpass filters) reflecting the extent of enzyme cleavage of the fluorescent substrate, notwithstanding the inhibitor, are linear rate fitted for each well. Fitted rates for all wells for each inhibitor are fitted to the competitive inhibition equation using SigmaPlot 2000 to determine V, Km and Ki values. Potential inhibitors are screened using the above assay with variable concentrations of test compound. Reactions were initiated by addition of enzyme to buffered solutions of substrate and inhibitor. Ki values were calculated according to equation 1 [formula] where v0 is the velocity of the reaction, V is the maximal velocity, S is the concentration of substrate with Michaelis constant of KM, and/is the concentration of inhibitor.

human cathepsin L = human cathepsin L (Homo sapiens, UniProt P07711); assay: Cathepsin L Ki; type: biochemical
Experimental: The procedure above with the following amendments is used for the determination of Ki for cathepsin L.
The enzyme is commercially available human cathepsin L (for example Calbiochem). The substrate is H-D-Val-Leu-Lys-AMC available from Bahcem. The assay buffer is 100 mM sodium acetate 1 mM EDTA, pH5.5) The DMSO stock (10 mM in 100% DMSO) is diluted to 10% in assay buffer. Enzyme is prepared at 5 nM concentration in assay buffer plus 1 mM dithiothreitol just before use. 2 ul of 10 mM inhibitor made up in 100% DMSO is dispensed into row A. 10 ul of 50 uM substrate (=1/200 dilution of 10 mM stock in DMSO, diluted in assay buffer)
as §1, §2

[3] = Metabolic stability in human hepatic cytosol assay; type: in vitro ADME; conditions: 2 μM in pooled human liver cytosol, 1 mg/mL protein, pH 7.4, 37°, 1 mM NADPH
Experimental: Compounds of the invention and the indicated comparative examples were tested for metabolic stability in a cytosol assay in which the compounds were incubated with commercially available human hepatic cytosol fractions and the disappearance of the compound monitored by HPLC or LC/MS. Pooled human liver cytosol fractions are less likely to represent outlier individuals than blood from a single individual and can be stored frozen, unlike whole blood. The cytosol assay thus provides a consistent assay testbed as a guide to the stability of a compound in the in vivo environment, such as when exposed to whole blood.
In short, test compounds (2 μM) are incubated in pooled human liver cytosol (Xenotech LLC Lenexa US, 1 mg/mL protein in 0.1M phosphate buffer, pH 7.4) at 37° centigrade over a one hour period. The incubations are initiated by the addition of 1 mM NADPH co-factor. Timed sub-samples were taken at 0, 20, 40 and 60 minutes and “crash precipitated” by the addition of 3 volumes of ice-cold acetonitrile. The samples were centrifuged at reduced temperature and the supernatants were separated and analyzed by LC-MS-MS.

[4] = Caco-2 permeability (Papp); type: in vitro ADME; conditions: human; Caco-2 assay, standard concentration 10 μM
Experimental: The transport plate comprises 3 rows of 4 wells.
Determination of the cumulative fraction absorbed, FAcum, versus time. FAcum is calculated from: […]
A linear relationship should be obtained.

[5] = representative values from specific batches of compound/enzyme/assay occasion

T2 sequence (P25774 115-331): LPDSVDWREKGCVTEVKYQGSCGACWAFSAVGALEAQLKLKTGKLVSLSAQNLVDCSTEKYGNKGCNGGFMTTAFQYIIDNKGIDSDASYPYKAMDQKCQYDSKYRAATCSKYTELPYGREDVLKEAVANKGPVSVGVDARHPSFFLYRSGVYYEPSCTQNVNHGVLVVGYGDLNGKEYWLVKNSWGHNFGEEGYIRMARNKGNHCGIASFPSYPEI
Chain of human cathepsin L (P07711 114-333): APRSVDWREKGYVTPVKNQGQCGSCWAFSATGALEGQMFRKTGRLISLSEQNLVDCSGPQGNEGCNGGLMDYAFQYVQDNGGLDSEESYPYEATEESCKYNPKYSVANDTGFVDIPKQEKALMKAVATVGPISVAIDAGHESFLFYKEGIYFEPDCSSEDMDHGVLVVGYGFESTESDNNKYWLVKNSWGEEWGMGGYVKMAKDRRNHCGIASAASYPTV

Q: What does the source list for `CC(C)C[C@H](NC(=O)c1ccc(-c2nc(N3CCN(C)CC3)sc2F)cc1)C(=O)N1C[C@@H](Cl)[C@H]2OCC(=O)[C@H]21` [Example 12, N-[1-(6-Chloro-3-oxo-hexahydro-furo[3,2-b]pyrrole-4-carbonyl)-3-methyl-butyl]-4-[5-fluoro-2-(4-methyl-piperazin-1-yl)-thiazol-4-yl]-benzamide]?
A: Ki ([1]; Table 1, class symbols): < 0.05 µM; Ki [1, 5]: 0.0018 µM; Ki ([2]; Table 1, class symbols): > 10 µM; Ki [2, 5]: 11 µM; Ki (human cathepsin L; Table 1, class symbols): 1 to 5 µM; Ki (human cathepsin L; [5]): 1.6 µM; half-life at 2 μM [3]: 4.5 h; Papp at 120 min, 10 μM [4]: 10 ×10⁻⁶ cm/s
